{
  "source": "paper PMC6264390",
  "about": "“Design, Synthesis and Structure-activity Studies of Rhodanine Derivatives as HIV-1 Integrase Inhibitors” (Molecules, 2010)",
  "key": {"HCT 116 p53^+/+": {"system": "HCT 116 p53^+/+", "experiment": "MTT cytotoxicity assay, HCT 116 p53+/+", "type": "cell-based", "details": "Homo sapiens, 72 h", "source_text": "(§1) Human melanoma cell line MDA-MB 435, pancreatic cancer cell line Panc-1, and colon cancer cell line HT 29 were purchased from the American Type Cell Culture (Manassas, VA, USA). HCT 116 p53^+/+ and HCT 116 p53^−/^− were kindly provided by Dr. Bert Vogelstein, Johns Hopkins Medical Institutions (Baltimore, MD, USA). HCT 116 p53^+/+, HCT116 p53^−/^−, and HT 29 cells were maintained as monolayer cultures in RPMI 1640 supplemented with 10% fetal bovine serum (FBS; Gemini-Bioproducts, Woodland, CA, USA) and 2 mmol/L L-glutamine at 37 °C in a humidified atmosphere of 5% CO2. Similarly, MDA-MB 435 and Panc-1 cells were maintained in Dulbecco’s modified Eagle’s medium (DMEM) supplemented with 10% fetal bovine serum as described above. […]\n(§2) Cytotoxicity was assessed by 3-(4,5-dimethylthiazol-2-yl)-2,5-diphenyltetrazolium bromide (MTT) assay as previously described. […]\n(§3) After 72 h exposure to the test compounds, MTT solution (5 mg/mL; 20 μL) was added to each well and cells were incubated for 4 h at 37 °C. […] The absorbance intensity was measured at 570 nm against appropriate blank controls using a microplate reader (Molecular Devices, Sunnyvale, CA, USA). […]"}, "HCT 116 p53^−/^−": {"system": "HCT 116 p53^−/^−", "experiment": "MTT cytotoxicity assay, HCT 116 p53−/−", "type": "cell-based", "details": "Homo sapiens, 72 h", "source_text": "as §1, §2, §3"}, "[1]": {"system": "Panc-1 pancreatic cancer cell line", "experiment": "MTT cytotoxicity assay, Panc-1", "type": "cell-based", "details": "Homo sapiens, 72 h", "source_text": "as §1, §2, §3"}, "HIV-1 IN": {"biological_target": "T1, HIV-1 IN (Human immunodeficiency virus type 1 group M subtype B, UniProt P12497)", "T1 construct": "pre-incubated with purified recombinant IN (at a final concentration of 200 nM); made in house", "experiment": "In vitro IN inhibition assay (3’-processing and strand transfer)", "type": "biochemical", "details": "Mn2+ cofactor (7.5 mM MnCl2)", "how_it_was_run": "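Recombinant HIV-1 IN (200 nM) preincubated with compound 30 min at 30 °C in MnCl2-containing buffer (MgCl2 plus PEG for Mg2+ format), then 1 h with 20 nM 5'-32P-labeled 21-mer duplex. 3'-processing and strand-transfer products resolved on denaturing gels, phosphorimager-quantified; IC50 from log-concentration versus % inhibition.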"}, "[2]": {"details": "read-out: Inhibition of IN catalytic activity IC50, 3’-Processing"}, "[3]": {"details": "read-out: Inhibition of IN catalytic activity IC50, Strand Transfer"}},
  "note": "Where two headings read alike, the source gives them in different places.",
  "data": [
    {"smiles": "COc1ccc(NC(=O)C(=S)NN2C(=O)C(=Cc3ccc([N+](=O)[O-])o3)SC2=S)cc1", "note": "[Compound 17, N-(4-methoxyphenyl)-2-{5-[(5-nitro-2-furyl)methylene]-4-oxo-2-thioxo-1,3-thiazolidin-3-yl}amino-2-thioxoacetamide]", "values": [
      {"measurement": "GI50", "setting": "HCT 116 p53^+/+", "result": "5.1 ± 0.8", "unit": "µM"},
      {"measurement": "GI50", "setting": "HCT 116 p53^−/^−", "result": "6.1 ± 2.2", "unit": "µM"},
      {"measurement": "melting point", "result": "187 to 188", "unit": "°C"},
      {"measurement": "GI50", "setting": "[1]", "result": "8.2 ± 1.2", "unit": "µM"},
      {"measurement": "IC50", "setting": "HIV-1 IN; [2]", "result": "77 ± 10", "unit": "µM"},
      {"measurement": "IC50", "setting": "HIV-1 IN; [3]", "result": 60, "unit": "µM"}
    ]},
    {"smiles": "O=C(Nc1ccc(Cl)cc1)C(=S)NN1C(=O)C(=Cc2ccc([N+](=O)[O-])o2)SC1=S", "note": "[Compound 13, N-(4-chlorophenyl)-2-{5-[(5-nitro-2-furyl)methylene]-4-oxo-2-thioxo-1,3-thiazolidin-3-yl}amino-2-thioxoacetamide]", "values": [
      {"measurement": "GI50", "setting": "HCT 116 p53^+/+", "result": "> 10", "unit": "µM"},
      {"measurement": "GI50", "setting": "HCT 116 p53^−/^−", "result": "6.5 ± 1.2", "unit": "µM"},
      {"measurement": "melting point", "result": "159 to 160", "unit": "°C"},
      {"measurement": "GI50", "setting": "[1]", "result": "8.6 ± 1.6", "unit": "µM"},
      {"measurement": "IC50", "setting": "HIV-1 IN; [2]", "result": "68 ± 46", "unit": "µM"},
      {"measurement": "IC50", "setting": "HIV-1 IN; [3]", "result": "41 ± 27", "unit": "µM"}
    ]}
  ]
}
